Laboratory results reported in patent publication US20230392126A1, “TISSUE ORGANOIDS” (priority 2016, published 2023).

How the values were obtained:
[1] = i.p., mice; cited from earlier work
[2] = Acute drug overdose test: cocaine-induced lethality; type: in vivo, mouse
Experimental: For all behavioral experiments except where noted, C57BL/6J mice were used. Roughly equal numbers of adult male and female mice were group-housed until surgery. Mice were maintained under controlled temperature and humidity conditions on a 12 h:12 h light:dark cycle (lights on at 7:00). Water and food were available ad libitum. Mice weighed around 25-30 g at the beginning of the experiments. All procedures followed National Institutes of Health Guide for the Care and Use of Laboratory Animal and were approved by the University of Chicago Institutional Animal Care and Use Committee.
Drug: Cocaine HCl and methamphetamine HCl (Sigma-Aldrich, Saint Louis, MO) were dissolved in sterile saline and delivered intraperitoneally at appropriates doses in a volume of 10 mL/kg. Ethanol (Sigma-Aldrich, Saint Louis, MO, 95%, density=0.816) was prepared in 20% (v/v) diluted in sterile saline and delivered intraperitoneally at appropriate doses. Vehicle (sterile saline) was intraperitoneally administered at 10 mL/kg as a control.
Acute drug overdose test: Two weeks after grafting surgery, 4 groups of GhBChE and 4 groups of GWT mice (n=8 each in each group) received i.p. injections of cocaine at […]. As a control, 4 groups of GhBChE and 4 groups of GWT mice (n=8 each) received i.p. injections of methamphetamine (METH) at 34, 68 (LD50), 100, and 160 mg/kg. Two each of GhBChE and GWT mice with CD1 mice as hosts were also used to videotape acute cocaine (80 mg/kg) induced behaviors. Mice were monitored for 2 h following injection and percent of cocaine- and METH-induced lethality was calculated.
To first determine whether engrafting hBChE-expressing cells protects mice from acute systemic toxicity of cocaine, we delivered different doses of cocaine to grafted mice and calculated the lethality rates of cocaine. […] Parallel testing was conducted to test the toxicity of a related stimulant METH (methamphetamine) in GhBChE and GWT mice.

[3] = molecular target: T1, GLP-1 receptor (Mus musculus, UniProt O35659); details: mice; cited from earlier work
T1 construct: host or cells: living mice (endogenous receptor)
T1 sequence (O35659 22-463): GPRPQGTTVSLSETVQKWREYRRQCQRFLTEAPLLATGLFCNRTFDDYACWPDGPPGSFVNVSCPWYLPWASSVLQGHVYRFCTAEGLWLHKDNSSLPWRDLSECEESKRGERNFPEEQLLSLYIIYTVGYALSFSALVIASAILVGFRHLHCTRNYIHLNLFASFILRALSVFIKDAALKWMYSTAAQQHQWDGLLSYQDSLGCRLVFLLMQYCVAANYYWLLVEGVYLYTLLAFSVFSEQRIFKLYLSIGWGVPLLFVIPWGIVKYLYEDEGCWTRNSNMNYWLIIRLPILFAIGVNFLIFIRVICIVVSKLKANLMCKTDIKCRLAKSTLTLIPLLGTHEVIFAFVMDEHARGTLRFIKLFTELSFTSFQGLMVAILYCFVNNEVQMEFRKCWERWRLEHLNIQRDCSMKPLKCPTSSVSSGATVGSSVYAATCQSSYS

[4] = test system: epidermal progenitor cells; assay: Suicide gene-induced cell death in epidermal progenitor cells upon prodrug treatment; type: cell-based; details: ganciclovir and 5-fluorocytosine, respectively; data not shown
Description: To test this possibility, a Rosa26 targeting vector encoding phenylalanine ammonia lyase (PAL) (SEQ ID NO: 51) together with inducible “suicide” genes HSV-TK (Herpes Simplex Virus Thymidine Kinase) (SEQ ID NO: 52) and yCD (yeast cytosine deaminase) (SEQ ID NO: 53) was used for epidermal progenitor cell transfection.

[5] = Phenylalanine clearance by PAL-expressing mouse epidermal keratinocytes in vitro; type: cell-based
Description: Therefore, using CRISPR-mediated genome editing with epidermal progenitor cell technology the possibility for treatment of PKU by cutaneous expression of PAL is investigated.
A complete phenotypic change from brown hair coat to dark black fur is also expected. For tissue enzymatic analysis, PAL activity detection in grafted skin is expected but not in other tissues. PAH activity is absent in the liver of the mutant mice. Female mice are more resistant to PKU therapy. If this is the case for cutaneous gene therapy, female PAH mutant mice are tested to determine whether they require larger skin grafts or more grafts than male mice for correction of hyperphenylalaninemia.

[6] = PKU mouse model (PAH mutant, BTBR strain) grafted with PAL-expressing cells: plasma phenylalanine, fur color, tissue enzyme activity; type: in vivo; details: PAH mutant mice, ~2 mM plasma phenylalanine
Description: The mouse model of PKU has been developed by ENU (N-ethyl-N-nitrosourea)-mediated mutagenesis in BTBR strain (Jax strain 002232).
With establishment of skin engraftment in PAH mutant mice, plasma phenylalanine level are monitored. Three weeks post skin grafting with PAL expressing cells or control cells (BTBR epidermal progenitor cells treated with control vectors), blood samples are collected from the tail clipping biweekly for up to 30 weeks. Plasma is separated by centrifugation. Phenylalanine concentration is determined by established fluorometric protocol. Lowering of phenylalanine level restores melanin biosynthesis, and leads to a change of fur color. Potential alteration in fur coat color is recorded weekly for all the grafted animals. […] Thus, two different cohorts of animals (male and female) are established to test the potential gender-dependent effect of cutaneous gene therapy in vivo.
At the endpoint of the experiment (30 weeks), grafted animals are euthanized and tissue samples (grafted skin, host skin, and liver) are collected. Presence of enzyme activity in the tissues is determined by PAH and PAL activity assay.
A complete phenotypic change from brown hair coat to dark black fur is also expected. For tissue enzymatic analysis, PAL activity detection in grafted skin is expected but not in other tissues. PAH activity is absent in the liver of the mutant mice. […]

[7] = test system: mouse epidermal stem cells; assay: Cell proliferation and differentiation of engineered mouse epidermal cells in vitro (cell cycle FACS, calcium shift western blot); type: cell-based
Experimental: Primary human neonatal epidermal keratinocytes were obtained from Thermo Fischer® (C0015C), and cultured with Epilife® medium (Thermo Fischer, M-EPICF-500) with manufacturer's recommended procedures. Calcium shift was performed to induce differentiation of primary keratinocytes by increasing the calcium concentration in culture media to 1.5 mM.
Propidium iodide (PI) staining followed by flow cytometry were used to determine the effect of cell cycle profiles. Mouse and human epidermal cells were cultured in two 6 cm cell culture dish for 24 hours, respectively. Cells were trypsinized, and 1×10^5 cells from each dish were collected, followed by one PBS wash. […] After staining, the cells were analyzed immediately using flow cytometer BD FACSCanto™ II (BD Biosciences, San Jose, CA) with an excitation wavelength at 488 nm and emission at 585 nm. DNA content and histograms of cell cycle distribution were analyzed using FlowJo™ software, version 10 (FLOWJO LLC, OR).
Western blotting was performed as described previously (Blanpain et al.). […] Visualization and quantification was carried out with the LI-COR Odyssey® scanner and software (LI-COR Biosciences).
Propidium iodide (PI) staining followed by flow cytometry were used to determine the effect of cell cycle profiles. […] DNA content and histograms of cell cycle distribution were analyzed using FlowJo™ software, version 10 (FLOWJO LLC, OR). […]

[8] = WT GGBP; read-out: glucose binding affinity (Kd); cited from earlier work

CN[C@@H](C)Cc1ccccc1 [METH, methamphetamine]
LD50 [1]: 68 mg/kg

COC(=O)[C@H]1[C@@H](OC(=O)c2ccccc2)C[C@@H]2CC[C@H]1N2C [cocaine]
lethality ([2]; 80 mg/kg i.p., control mice grafted with WT epidermal cells (GWT)): roughly 50% | lethality ([2]; 120 mg/kg i.p., GWT mice): 100% | lethality ([2]; 160 mg/kg i.p., GWT mice): 100%

Exendin-4
effect on nicotine-induced behaviours [3]: attenuates nicotine-induced locomotor stimulation, accumbal dopamine release, and the expression of conditioned place preference in mice

HSV-TK: inducible suicide gene, Herpes Simplex Virus Thymidine Kinase (SEQ ID NO: 52), prodrug ganciclovir
cell death upon prodrug treatment [4]: efficiently induced cell death upon treatment with prodrugs

PAL: Phenylalanine ammonia-lyase (SEQ ID NO: 51) expressed in epidermal keratinocytes
degradation of phenylalanine in culture media compared with PAH ([5]; lentivirus-infected mouse epidermal keratinocytes, preliminary): much faster than cells expressing PAH | phenylalanine removal by grafts ([5]; two 1 cm^2 epidermal grafts, ~2×10^7 metabolically active cells): 57 pmol of phenylalanine per day | effect on hyperphenylalaninemia [6]: sufficient for a complete reversal of hyperphenylalaninemia | effect of expression on cell proliferation / differentiation in vitro [7]: does not significantly alter cell proliferation or differentiation in vitro

WT (wild type) GGBP: wild type glucose/galactose-binding protein of E. coli periplasm
Kd [8]: 200 nM
